Structures can show the parent of a compound that is named as a salt. Where two headings read alike, the source gives them in different places.
Columns and labels:
[1] = Stability test of BTG 1640 salts: evaluation of total impurities; assay type: physicochemical
Experimental: Contemporaneously, the impurity analysis in the conditions a)-d) of T/% RH were carried out.
As a confirmation of such evidence, a test for the evaluation of the impurity percentage of the sample subjected to the same conditions a)-d) of T/% RH was parallely carried out. The experimental values in Table 4 were obtained.

[2] = Absorption kinetic: plasma concentration of BTG 1640 after oral gavage; assay type: in vivo, rats Sprague Dawley; conditions: rat, in vivo, po, 10 mg/kg
Experimental: Absorption extent and rate of molecule BTG 1640 in its forms of fumarate and hydrochloride salts were evaluated.
With this intent, the two salts were dispersed in an aqueous suspension of arabic gum at 5% thus obtaining two formulations, each one orally administered through oesophageous gavage at dose of 10 mg/kg (expressed as free base of BTG 1640) to five rats Sprague Dawley.
Plasma concentration of molecule BTG 1640 was determined at different time points.

female CD-1 mice = test: Acute oral toxicity; assay type: in vivo
Experimental: Acute oral toxicity of salts hydrochloride and fumarate of BTG-1640 was evaluated.
The two salts were dispersed in an aqueous suspension, thus obtaining two formulations, each one orally administered through oesophageous gavage at dose of 2000 mg/kg bw (expressed as free base of BTG 1640) to one of two groups comprising three female CD-1 mice per group.
The observation lasted 14 days.

[3] = Stability test of BTG 1640 salts: purity under preservation conditions; assay type: physicochemical
Experimental: Samples of 100 mg each of BTG 1640 hydrochloride were subjected to the following preservation conditions:
The purities were then analyzed periodically, initially every three months, in order to underline possible variations.
Samples of 100 mg each of BTG 1640 fumarate prepared according to example 1C were subjected to the following preservation conditions:
Quarterly and in an overall period of nine months its purity was then analyzed in order to underline possible variations. The results in the following Table 3 were obtained:
As comparison other salts of BTG 1640 were prepared, and exactly: • BTG 1640 methanesulphonate • BTG 1640 maleate • BTG 1640 succinate following the procedure indicated in example 1 and substituting methanesolphonic, maleic and succinic acids for fumaric acid.
The stabilities were then evaluated by subjecting samples of 100 mg of each salt to the following analogous preservation conditions:
Quarterly and in an overall period of nine months their purity was then analyzed in order to underline possible variations.
The obtained results, together with those obtained in Example 2 for hydrochloride, in Example 3 for fumarate in order to make easier the comparison, were in Table 5 and represented in FIGS. 5-8.

[4] = T = 25° C., humidity 60% RH, time 0
[5] = T = 25° C., humidity 60% RH, time 3 (months)
[6] = T = 25° C., humidity 60% RH, time 6 (months)
[7] = T = 25° C., humidity 60% RH, time 9 (months)
[8] = T = 30° C., humidity 65% RH, time 0
[9] = T = 30° C., humidity 65% RH, time 3 (months)
[10] = T = 30° C., humidity 65% RH, time 6 (months)
[11] = T = 30° C., humidity 65% RH, time 9 (months)
[12] = T = 40° C., humidity 75% RH, time 0
[13] = T = 40° C., humidity 75% RH, time 3 (months)
[14] = T = 40° C., humidity 75% RH, time 6 (months)
[15] = female CD-1 mice, oral gavage 2000 mg/kg bw

## CN1OC2CCCC(=O)C2C1Cc1ccccc1 [BTG 1640 fumarate, fumarate salt of rel-(3R,3aS,7aS)-3-benzyl-2-methyl-2,3,3a,4,5,6,7,7a-octahydrobenzo[d]isoxazol-4-one]
[1]; T = 5° C., time 0
  % impurities: 0.49%
[1]; T = 5° C., time 3 (months)
  % impurities: 0.10%
[1]; T = 5° C., time 6 (months)
  % impurities: 0.10%
[1]; T = 5° C., time 9 (months)
  % impurities: 0.10%
[1]; [4]
  % impurities: 0.49%
[1]; [5]
  % impurities: 0.10%
[1]; [6]
  % impurities: 0.10%
[1]; [7]
  % impurities: 0.10%
[1]; [8]
  % impurities: 0.49%
[1]; [9]
  % impurities: 0.10%
[1]; [10]
  % impurities: 0.10%
[1]; [11]
  % impurities: 0.10%
[1]; [12]
  % impurities: 0.49%
[1]; [13]
  % impurities: 0.10%
[1]; [14]
  % impurities: 0.10%
[1]; condition d): 40° C./75% RH
  Impurities (in words): invariable impurity profile
[2]; Sprague Dawley
  concentration at 2 min: 1070 ng/mL
  concentration at 5 min: 2350 ng/mL
  concentration at 30 min: 838 ng/mL
  concentration at 90 min: 0 ng/mL
  concentration at 300 min: 0 ng/mL
[2]
  Plasma concentration of free BTG 1640 with respect to hydrochloride: not significantly higher
  availability of the active principle in the circulation: more favourable
Female CD-1 mice; [15]
  Clinical signs: quickly reversible neurological signs
  Histopathological examination of kidneys: only a mild dilatation of convoluted tubules
Female CD-1 mice; female mice, 2000 mg/kg bw
  Toxicity compared with hydrochloride: strongly less toxic
[3]
  Stability compared with BTG 1640 hydrochloride: higher stability
[3]; T = 5° C., time 0
  Purity %: 99.5%
[3]; T = 5° C., time 3 (months)
  Purity %: 100.0%
[3]; T = 5° C., time 6 (months)
  Purity %: 100.0%
[3]; T = 5° C., time 9 (months)
  Purity %: 99.9%
[3]; [4]
  Purity %: 99.5%
[3]; [5]
  Purity %: 100.0%
[3]; [6]
  Purity %: 100.0%
[3]; [7]
  Purity %: 99.9%
[3]; [8]
  Purity %: 99.5%
[3]; [9]
  Purity %: 100.0%
[3]; [10]
  Purity %: 100.0%
[3]; [11]
  Purity %: 99.9%
[3]; [12]
  Purity %: 99.5%
[3]; [13]
  Purity %: 100.0%
[3]; [14]
  Purity %: 100.0%

## CN1OC2CCCC(=O)C2C1Cc1ccccc1.O=C(O)/C=C\C(=O)O (stereo not shown) [BTG 1640 maleate]
[1]; T = 5° C., time 0
  % impurities: 0.23%
[1]; T = 5° C., time 3 (months)
  % impurities: 0.10%
[1]; T = 5° C., time 6 (months)
  % impurities: 0.10%
[1]; T = 5° C., time 9 (months)
  % impurities: 0.19%
[1]; [4]
  % impurities: 0.23%
[1]; [5]
  % impurities: 0.22%
[1]; [6]
  % impurities: 0.10%
[1]; [7]
  % impurities: 0.29%
[1]; [8]
  % impurities: 0.23%
[1]; [9]
  % impurities: 0.49%
[1]; [10]
  % impurities: 1.10%
[1]; [11]
  % impurities: 4.20%
[1]; [12]
  % impurities: 0.23%
[1]; [13]
  % impurities: 75.60%
[3]; T = 5° C., time 0
  Purity %: 99.8%
[3]; T = 5° C., time 3 (months)
  Purity %: 100.0%
[3]; T = 5° C., time 6 (months)
  Purity %: 100.0%
[3]; T = 5° C., time 9 (months)
  Purity %: 99.8%
[3]; [4]
  Purity %: 99.8%
[3]; [5]
  Purity %: 99.8%
[3]; [6]
  Purity %: 100.0%
[3]; [7]
  Purity %: 99.7%
[3]; [8]
  Purity %: 99.8%
[3]; [9]
  Purity %: 99.5%
[3]; [10]
  Purity %: 98.9%
[3]; [11]
  Purity %: 95.9%
[3]; [12]
  Purity %: 99.8%
[3]; [13]
  Purity %: 24.4%
[3]; condition c) 30° C./65% RH, at sixth month
  Degradation (in words): considerable degradation
[3]; condition d): 40° C. and 75% RH
  Stability (in words): degrades in unacceptable way
[3]; conditions a) and b)
  Stability profile (in words): acceptable profile
[3]; conditions a)-d)
  Stability compared with BTG 1640 hydrochloride: even worse

## CN1OC2CCCC(=O)C2C1Cc1ccccc1.CS(=O)(=O)O (stereo not shown) [BTG 1640 methanesulphonate]
[1]; T = 5° C., time 0
  % impurities: 0.42%
[1]; T = 5° C., time 3 (months)
  % impurities: 0.55%
[1]; T = 5° C., time 6 (months)
  % impurities: 0.74%
[1]; T = 5° C., time 9 (months)
  % impurities: 0.91%
[1]; [4]
  % impurities: 0.42%
[1]; [5]
  % impurities: 1.80%
[1]; [6]
  % impurities: 2.90%
[1]; [7]
  % impurities: 5.00%
[1]; [8]
  % impurities: 0.42%
[1]; [9]
  % impurities: 4.00%
[1]; [10]
  % impurities: 13.20%
[1]; [11]
  % impurities: 25.80%
[1]; [12]
  % impurities: 0.42%
[1]; [13]
  % impurities: 18.50%
[1]; [14]
  % impurities: 94.30%
[3]; T = 5° C., time 0
  Purity %: 99.6%
[3]; T = 5° C., time 3 (months)
  Purity %: 99.5%
[3]; T = 5° C., time 6 (months)
  Purity %: 99.3%
[3]; T = 5° C., time 9 (months)
  Purity %: 99.1%
[3]; [4]
  Purity %: 99.6%
[3]; [5]
  Purity %: 98.2%
[3]; [6]
  Purity %: 97.1%
[3]; [7]
  Purity %: 95.0%
[3]; [8]
  Purity %: 99.6%
[3]; [9]
  Purity %: 96.0%
[3]; [10]
  Purity %: 86.8%
[3]; [11]
  Purity %: 74.2%
[3]; [12]
  Purity %: 99.6%
[3]; [13]
  Purity %: 81.5%
[3]; [14]
  Purity %: 5.7%
[3]; conditions a)-d)
  Stability compared with BTG 1640 hydrochloride: even worse
[3]; conditions b)-d)
  Degradation (in words): begins to degrade already after three months

## CN1OC2CCCC(=O)C2C1Cc1ccccc1.O=C(O)CCC(=O)O (stereo not shown) [BTG 1640 succinate]
[1]; T = 5° C., time 0
  % impurities: 0.77%
[1]; T = 5° C., time 3 (months)
  % impurities: 2.00%
[1]; T = 5° C., time 6 (months)
  % impurities: 1.90%
[1]; T = 5° C., time 9 (months)
  % impurities: 3.20%
[1]; [4]
  % impurities: 0.77%
[1]; [5]
  % impurities: 7.30%
[1]; [6]
  % impurities: 13.00%
[1]; [7]
  % impurities: 9.50%
[1]; [8]
  % impurities: 0.77%
[1]; [9]
  % impurities: 14.60%
[1]; [10]
  % impurities: 28.50%
[1]; [11]
  % impurities: 33.30%
[1]; [12]
  % impurities: 0.77%
[1]; [13]
  % impurities: 83.50%
[3]; T = 5° C., time 0
  Purity %: 99.2%
[3]; T = 5° C., time 3 (months)
  Purity %: 98.0%
[3]; T = 5° C., time 6 (months)
  Purity %: 98.1%
[3]; T = 5° C., time 9 (months)
  Purity %: 96.8%
[3]; [4]
  Purity %: 99.2%
[3]; [5]
  Purity %: 92.7%
[3]; [6]
  Purity %: 87.0%
[3]; [7]
  Purity %: 90.5%
[3]; [8]
  Purity %: 99.2%
[3]; [9]
  Purity %: 85.4%
[3]; [10]
  Purity %: 71.5%
[3]; [11]
  Purity %: 66.8%
[3]; [12]
  Purity %: 99.2%
[3]; [13]
  Purity %: 16.5%
[3]; conditions a)-d)
  Stability compared with BTG 1640 hydrochloride: even worse
[3]; conditions a)-d), from the third month
  Degradation (in words): shows degradation at all observation conditions

Source: US20100069450A1, “SALT OF 3-BENZYL-2-METHYL-2,3,3A,4,5,6,7, 7A- OCTAHYDROBENZO[D]ISOXAZOL-4-ONE” (ABIOGEN PHARMA S.P.A, priority 2006, published 2010)
